Results taken from patent US20230357447A1, “TUMOR ACTIVATED MULTISPECIFIC ANTIBODIES FOR TARGETING CD28 AND PD-L1 AND METHODS OF USE THEREOF” (Janux Therapeutics, Inc., priority 2022, published 2023).

Tested on: anti-CD28 scFv
Assay: Phage binding ELISA (panning) of clonal phage on anti-CD28 scFv, with or without CD28 soluble protein
Conditions: for Phage binding ELISA Backgroud signal / Backgroud signal: clonal phage supernatant; for Backgroud signal / CD28 scFv signal in presence of CD28 / CD28 scFv signal: Phage binding ELISA; for Backgroud signal: background wells; for CD28 scFv signal in presence of CD28: captured anti-CD28 scFv pre-incubated with CD28 soluble protein; for CD28 scFv signal: captured biotinylated anti-CD28 scFv; for CD28 scFv signal / Phage binding ELISA CD28 scFv signal: blocking buffer alone; for Phage binding ELISA CD28 scFv signal in presence of CD28: clonal phage supernatant on captured anti-CD28 scFv pre-incubated with CD28 soluble protein; for Phage binding ELISA CD28 scFv signal: clonal phage supernatant on captured biotinylated anti-CD28 scFv
Summary of the method: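 Wells pre-incubated with blocking buffer plus CD28 soluble protein or blocking buffer alone, then crude clonal phage supernatants added without washing for a short incubation. After washing, bound phage detected with HRP-conjugated anti-M13 antibody.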

[1] = background (no anti-CD28 scFv signal)

Phage-383 (LAGCQRDLATVCVI)
Phage binding ELISA Backgroud signal [1]: 0.068

Phage-213 (MNWCPSYMWDQCFA)
Phage binding ELISA Backgroud signal (background signal): 0.125

Phage-327 (MHWCPRDLWHVCFN)
Phage binding ELISA Backgroud signal (background signal): 0.071

Phage-149 (MDWCPRDLWAVCFA)
Backgroud signal: 0.070

Phage-131 (MDWCPRSLWIYCFN)
Backgroud signal: 0.113

Phage-418 (MYWCPKYMWSECFA)
Phage binding ELISA Backgroud signal [1]: 0.072

Phage-347 (MDWCPLFLWDQCFN)
Phage binding ELISA Backgroud signal (background signal): 0.116

Phage-80 (MDWCPMYLWNECFS)
Phage binding ELISA Backgroud signal (background signal): 0.071

Phage-398 (MDWCPRNMWNECFF)
Phage binding ELISA Backgroud signal [1]: 0.095

Phage-87 (MDWCPKDLWYLCFA)
CD28 scFv signal in presence of CD28: 0.213
CD28 scFv signal: 2.608
Backgroud signal: 0.200

Phage-425 (MDLCPTAMWNRCFY)
Phage binding ELISA Backgroud signal [1]: 0.063

Phage-378 (MHWCPLHLWNECFA)
Phage binding ELISA Backgroud signal (background signal): 0.065

Phage-84 (MDWCPKYLWSVCFF)
Phage binding ELISA CD28 scFv signal in presence of CD28: 0.826
Phage binding ELISA CD28 scFv signal: 2.622
Phage binding ELISA Backgroud signal (background signal): 0.184

Phage-320 (MDWCPTYLWNECFN)
Phage binding ELISA Backgroud signal (background signal): 0.120

Phage-75 (MDWCPRSHWHVCYN)
Phage binding ELISA Backgroud signal (background signal): 0.072

Phage-136 (MHWCPIYLWDECFN)
Backgroud signal: 0.071

Phage-85 (MDWCPMDLWYQCFN)
Phage binding ELISA Backgroud signal (background signal): 0.063

Phage-452 (MDWCPRDWWHMCFN)
Phage binding ELISA Backgroud signal [1]: 0.100

Phage-70 (ITWCPSSMWNRCFI)
Phage binding ELISA Backgroud signal (background signal): 0.065

Phage-410 (IDWCPRYMWHECFF)
Phage binding ELISA Backgroud signal [1]: 0.098

Phage-189 (VDWCPRYLWHVCYN)
Phage binding ELISA Backgroud signal (background signal): 0.064

Phage-58 (MHWCPIDRWADCFN)
Phage binding ELISA CD28 scFv signal in presence of CD28: 0.077
Phage binding ELISA CD28 scFv signal: 0.287
Phage binding ELISA Backgroud signal (background signal): 0.074

Phage-431 (MAWCPADQWHECFN)
Phage binding ELISA Backgroud signal [1]: 0.076

Phage-349 (LDWCPRHLWALCFN)
Phage binding ELISA Backgroud signal (background signal): 0.073

Phage-186 (QDWCPTYLWHHCFN)
Phage binding ELISA Backgroud signal (background signal): 0.101

Phage-62 (MDWCPSYLWNECFF)
Phage binding ELISA Backgroud signal (background signal): 0.065

Phage-174 (MDWCPKHLWNECFN)
Phage binding ELISA Backgroud signal (background signal): 0.063

Phage-246 (MDWCPKHLWNKCFN)
Phage binding ELISA Backgroud signal (background signal): 0.075

Phage-325 (MDWCPAYLWDECFA)
Phage binding ELISA Backgroud signal (background signal): 0.096

Phage-151 (MDFCPISLWHECFF)
Backgroud signal: 0.081

Phage-428 (MNWCPSTMWNRCLT)
Phage binding ELISA Backgroud signal [1]: 0.067

Phage-247 (MDWCPRFMWAECFN)
Phage binding ELISA Backgroud signal (background signal): 0.073

Phage-285 (MDWCPRDLWAMCFA)
Phage binding ELISA Backgroud signal (background signal): 0.071

Phage-135 (MDWCPKFLWHECFS)
Backgroud signal: 0.065

Phage-48 (IDWCPRYLWDECYN)
Phage binding ELISA Backgroud signal (background signal): 0.061

Phage-82 (MDWCPRDLWTECFA)
Phage binding ELISA CD28 scFv signal in presence of CD28: 0.151
Phage binding ELISA CD28 scFv signal: 2.634
Phage binding ELISA Backgroud signal (background signal): 0.060

Phage-170 (MNWCPSDLWHLCFN)
Phage binding ELISA Backgroud signal (background signal): 0.071

Phage-306 (MDWCPRHLWNECFA)
Phage binding ELISA Backgroud signal (background signal): 0.068

Phage-343 (MDWCPRDLWTQCFF)
Phage binding ELISA Backgroud signal (background signal): 0.065

Phage-115 (MDWCPRYLWHECFN)
CD28 scFv signal in presence of CD28: 0.421
CD28 scFv signal: 2.490
Backgroud signal: 0.105

Phage-329 (MDWCPRALWNVCFA)
Phage binding ELISA Backgroud signal (background signal): 0.071

Phage-415 (MDWCPMYMWHKCFH)
Phage binding ELISA Backgroud signal [1]: 0.099

Phage-47 (MAWCPVYLWHECFN)
Phage binding ELISA CD28 scFv signal in presence of CD28: 0.351
Phage binding ELISA CD28 scFv signal: 2.273
Phage binding ELISA Backgroud signal (background signal): 0.094

Phage-234 (MDWCPRALWFECFF)
Phage binding ELISA Backgroud signal (background signal): 0.111

Phage-348 (MAWCPWYLWDECFN)
Phage binding ELISA Backgroud signal (background signal): 0.200

Phage-387 (MDWCPRHLWLECFN)
Phage binding ELISA Backgroud signal [1]: 0.064

Phage-59 (MDWCPRDSWHLCFA)
Phage binding ELISA Backgroud signal (background signal): 0.073

Phage-204 (MDWCPRHMWNVCFS)
Phage binding ELISA Backgroud signal (background signal): 0.067

Phage-55 (QDWCPRHMWSFCFH)
Phage binding ELISA CD28 scFv signal in presence of CD28: 0.081
Phage binding ELISA CD28 scFv signal: 0.074
Phage binding ELISA Backgroud signal (background signal): 0.138

Phage-110 (MDWCPRYLWDECFN)
CD28 scFv signal in presence of CD28: 0.283
CD28 scFv signal: 2.529
Backgroud signal: 0.069
